# Earlier results, collected in patent publication US20060280815A1, “Nutritional composition which promotes weight loss, burns calories, increases thermogenesis, supports energy metabolism and/or suppresses appetite” (priority 2004, published 2006).
# Conditions: people with type 2 diabetes; acute abstention from caffeine
smiles,measurement,value
Cn1c(=O)c2c(ncn2C)n(C)c1=O [caffeine],reduction of postprandial glucose levels,21%
